No end group written: not given here.
How the values were obtained:
Wistar rats = assay: In vivo plasma glucose and insulin after i.p. glucose with peptide in Wistar rats; parameters: species or system rat; conditions: 10 nmol/kg i.p. with glucose
Description: In vivo biological activity of GIP and Tyr^1-glucitol GIP. Effects of GIP and Tyr^1-glucitol GIP on plasma glucose and insulin concentrations were examined using 10-12 week old male Wistar rats. The animals were housed individually in an air conditioned room and 22±2° C. with a 12 hour light/12 hour dark cycle. Drinking water and a standard rodent maintenance diet (Trouw Nutrition, Belfast, Northern Ireland) were supplied ad libitum. Food was withdrawn for an 18 hour period prior to intraperitoneal injection of glucose alone (18 mmol/kq body weight) or in combination with either GIP or Tyr^1-glucitol GIP (10 nmol/kg). Test solutions were administered in a final volume of 8 ml/kg body weight. Blood samples were collected at 0, 15, 30 and 60 minutes from the cut tip of the tail of conscious rats into chilled fluoride/heparin microcentrifuge tubes (Sarstedt, Numbrecht, Germany). Samples were centrifuged using a Beckman microcentrifuge for about 30 seconds at 13,000 g. Plasma samples were aliquoted and stored at −20° C. prior to glucose and insulin determinations. All animal studies were done in accordance with the Animals (Scientific Procedures) Act 1986.
Analyses. Plasma glucose was assayed by an automated glucose oxidase procedure using a Beckman Glucose Analyzer II [33]. Plasma insulin was determined by dextran charcoal radioimmunoassay as described previously. Incremental areas under plasma glucose and insulin area under the curve (AUC) were calculated using a computer program (CAREA) employing the trapezoidal rule with baseline subtraction. Results are expressed as mean±SEM and values were compared using the Student's unpaired t-test.

DPP IV = target: T1, DPP IV (Sus scrofa, UniProt P22411); assay: Degradation of GIP and analogues by DPP IV (HPLC); format: in vitro ADME
T1 construct: purchased Sigma (Poole, Dorset, UK)
T1 sequence (P22411 whole entry): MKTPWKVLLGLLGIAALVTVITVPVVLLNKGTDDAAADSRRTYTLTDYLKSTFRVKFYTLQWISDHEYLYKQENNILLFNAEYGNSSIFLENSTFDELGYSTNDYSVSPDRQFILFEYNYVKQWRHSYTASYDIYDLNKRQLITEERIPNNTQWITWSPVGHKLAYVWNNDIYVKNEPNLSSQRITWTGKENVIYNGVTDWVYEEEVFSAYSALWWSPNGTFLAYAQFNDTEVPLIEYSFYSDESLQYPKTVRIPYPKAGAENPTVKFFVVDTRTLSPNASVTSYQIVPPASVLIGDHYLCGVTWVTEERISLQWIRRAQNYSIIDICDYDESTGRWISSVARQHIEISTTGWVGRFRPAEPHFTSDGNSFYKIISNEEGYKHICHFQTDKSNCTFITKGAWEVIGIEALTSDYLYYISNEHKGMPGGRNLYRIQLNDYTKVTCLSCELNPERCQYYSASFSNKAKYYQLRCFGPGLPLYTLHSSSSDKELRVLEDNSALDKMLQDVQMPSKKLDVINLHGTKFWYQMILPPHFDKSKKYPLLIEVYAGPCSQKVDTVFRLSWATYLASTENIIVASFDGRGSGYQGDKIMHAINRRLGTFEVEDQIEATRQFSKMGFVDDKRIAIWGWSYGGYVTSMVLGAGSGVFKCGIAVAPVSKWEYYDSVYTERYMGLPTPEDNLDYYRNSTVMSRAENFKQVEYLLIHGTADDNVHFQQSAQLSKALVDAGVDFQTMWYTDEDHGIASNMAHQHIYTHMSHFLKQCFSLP
Description: Degradation of GIP and Tyr^1-glucitol GIP by DPP IV. HPLC-purified GIP or Tyr^1-glucitol GIP were incubated at 37° C. with DPP-IV (5 mU) for various time periods in a reaction mixture made up to 500 μl with 50 mmol/l triethanolamine-HCl, pH 7.8 (final peptide concentration 1 mmol/l). Enzymatic reactions were terminated after 0, 2, 4 and 12 hours by addition of 5 μl of 10% (v/v) TFA/water. Samples were made up to a final volume of 1.0 ml with 0.12% (v/v) TFA and stored at −20° C. prior to HPLC analysis.
HPLC analysis of degraded GIP and Tyr^1-glucitol GIP. […] Using 0.1% (v/v) TFA in 70% acetonitrile/H20, the concentration of acetonitrile in the eluting solvent was raised from 0% to 31.5% over 15 min, to 38.5% over 30 minutes and from 38.5% to 70% over 5 minutes, using linear gradients. The absorbance was monitored at 206 nm and peak areas evaluated using a model 2221 LKB integrator. Samples recovered manually were concentrated using a Speed-Vac concentrator.
Electrospray ionization-mass spectrometry (ESI-MS) was carried out as described in Example 2. Degradation of GIP and novel GIP analogues by DPP IV and human plasma was carried out as described in Example 2.

[1] = target: T2, purified porcine dipeptidylpeptidase IV (Sus scrofa, UniProt P22411); assay: DPP IV degradation studies of fatty acid derivatised GIP analogues; format: in vitro ADME
T2 construct: purchased Sigma (Poole, Dorset, UK)
T2 sequence (P22411 whole entry): as above
Description: DPP IV degradation studies. GIP and fatty acid derivatised GIP analogues were incubated at 37° C. with purified porcine dipeptidylpeptidase IV (5 mU in 50 mmol/l triethanolamine-HCl; pH 7.8) for 0, 2, 4, 8 and 24 hours (final peptide concentration 2 mmol/l). The reactions were subsequently terminated by addition of 10% (v/v) TFA/water and the reaction products separated using HPLC. […] HPLC peak area data were used to calculate % intact peptide remaining throughout the incubation.

normal mice = assay: Chronic (11 days) (Pro3)GIP administration in normal mice; format: in vivo, mouse
Description: Effects of chronic (Pro^3)GIP administration on plasma glucose, insulin and glycated HbA1c in obese diabetic ob/ob mice and normal mice. Obese diabetic ob/ob mice and normal control mice aged 8-12 weeks were randomly divided into groups which received once daily subcutaneous injections (17:00 h) of either saline (0.9% w/v NaCl) or (Pro^3)GIP (25 nmol/kg body weight in saline). After 11 days, treatment was ceased. Food intake and body weight were recorded daily. Blood samples were collected from the cut tip of the tail of conscious mice into chilled fluoride/heparin coated glucose microcentrifuge tubes (Sarstedt, Numbrecht, Germany). Blood samples were immediately centrifuged using a Beckman microcentrifuge (Beckman Instruments, UK) for 30 seconds at 13000 g prior to glucose, insulin and HbA1c determinations.
Effects of chronic treatment with (Pro^3)GIP on glucose tolerance in ob/ob mice and normal mice. Plasma glucose and insulin concentrations were measured following intraperitoneal administration of glucose (18 mmol/kg body weight) in ob/ob and normal mice treated with either saline (0.9% w/v NaCl) or (Pro^3)GIP (25 nmol/kg body weight/day) for 11 days. […]
Determination of HbA1c, plasma glucose and insulin concentrations. HbA1c was measured in whole blood by ion-exchange high-performance liquid chromatography using the Menari HA-8140 kit (BIOMEN, Berkshire, UK). […]

[2] = isolated enzyme dpp iv, pH 7.8, % Intact peptide remaining after time (h)

## CC[C@H](C)[C@H](NC(=O)[C@H](CO)NC(=O)[C@H](Cc1ccc(O)cc1)NC(=O)[C@H](CC(=O)O)NC(=O)[C@H](CO)NC(=O)[C@@H](NC(=O)[C@H](Cc1ccccc1)NC(=O)[C@@H](NC(=O)CNC(=O)[C@H](CCC(=O)O)NC(=O)[C@H](C)NC(=O)[C@@H](N)Cc1ccc(O)cc1)[C@@H](C)O)[C@@H](C)CC)C(=O)N[C@@H](C)C(=O)N[C@@H](CCSC)C(=O)N[C@@H](CC(=O)O)C(=O)N[C@@H](CCCCN)C(=O)N[C@H](C(=O)N[C@@H](Cc1c[nH]cn1)C(=O)N[C@@H](CCC(N)=O)C(=O)N[C@@H](CCC(N)=O)C(=O)N[C@@H](CC(=O)O)C(=O)N[C@@H](Cc1ccccc1)C(=O)N[C@H](C(=O)N[C@@H](CC(N)=O)C(=O)N[C@@H](Cc1c[nH]c2ccccc12)C(=O)N[C@@H](CC(C)C)C(=O)N[C@@H](CC(C)C)C(=O)N[C@@H](C)C(=O)N[C@@H](CCC(N)=O)C(=O)N[C@@H](CCCCN)C(=O)NCC(=O)N[C@@H](CCCCN)C(=O)N[C@@H](CCCCN)C(=O)N[C@@H](CC(N)=O)C(=O)N[C@@H](CC(=O)O)C(=O)N[C@@H](Cc1c[nH]c2ccccc12)C(=O)N[C@@H](CCCCN)C(=O)N[C@@H](Cc1c[nH]cn1)C(=O)N[C@@H](CC(N)=O)C(=O)N[C@H](C(=O)N[C@H](C(=O)N[C@@H](CCC(N)=O)C(=O)O)[C@@H](C)O)[C@@H](C)CC)C(C)C)[C@@H](C)CC [GIP 1–42, reference compound]
Wistar rats
  overall insulin response (AUC) compared with glucose alone: significantly greater
Wistar rats; vs glucose alone, 0-60 min
  plasma glucose concentrations and AUC compared with control group: significantly lower
DPP IV; 0 h
  % Intact peptide remaining after time (h): 100%
DPP IV; isolated enzyme dpp iv, pH 7.8
  metabolised at 12 h, 1 mmol/l: 60%
DPP IV; [2]
  remaining at 2 h, 1 mmol/l: 52 ± 1%
  remaining at 4 h, 1 mmol/l: 23 ± 1%
  remaining at 8 h, 1 mmol/l: 0%
  remaining at 24 h, 1 mmol/l: 0%
DPP IV; isolated enzyme dpp iv, pH 7.8, % intact after incubation with DPP IV
  remaining at 4 h, 1 mmol/l: 54%
[1]; pig, 0 h
  % Intact peptide remaining after time (hours): 100%
[1]; pig, 2 h
  % Intact peptide remaining after time (hours): 52±3%
[1]; pig, 8 h
  % Intact peptide remaining after time (hours): entirely degraded

## CCCCCCCCCCCCCCCC(=O)NCCCC[C@H](NC(=O)[C@H](Cc1c[nH]c2ccccc12)NC(=O)[C@H](CC(=O)O)NC(=O)[C@H](CC(N)=O)NC(=O)[C@H](CCCCN)NC(=O)[C@H](CCCCN)NC(=O)CNC(=O)[C@H](CCCCN)NC(=O)[C@H](CCC(N)=O)NC(=O)[C@H](C)NC(=O)[C@H](CC(C)C)NC(=O)[C@H](CC(C)C)NC(=O)[C@H](Cc1c[nH]c2ccccc12)NC(=O)[C@H](CC(N)=O)NC(=O)[C@@H](NC(=O)[C@H](Cc1ccccc1)NC(=O)[C@H](CC(=O)O)NC(=O)[C@H](CCC(N)=O)NC(=O)[C@H](CCC(N)=O)NC(=O)[C@H](Cc1c[nH]cn1)NC(=O)[C@@H](NC(=O)[C@H](CCCCN)NC(=O)[C@H](CC(=O)O)NC(=O)[C@H](CCSC)NC(=O)[C@H](C)NC(=O)[C@@H](NC(=O)[C@H](CO)NC(=O)[C@H](Cc1ccc(O)cc1)NC(=O)[C@H](CC(=O)O)NC(=O)[C@H](CO)NC(=O)[C@@H](NC(=O)[C@H](Cc1ccccc1)NC(=O)[C@@H](NC(=O)CNC(=O)[C@H](CCC(=O)O)NC(=O)[C@H](C)NC(=O)[C@H](Cc1ccc(O)cc1)NC(C)=O)[C@@H](C)O)[C@@H](C)CC)[C@@H](C)CC)[C@@H](C)CC)C(C)C)C(=O)N[C@@H](Cc1c[nH]cn1)C(=O)N[C@@H](CC(N)=O)C(=O)N[C@H](C(=O)N[C@H](C(=O)N[C@@H](CCC(N)=O)C(=O)O)[C@@H](C)O)[C@@H](C)CC [N-AcGIP(LysPAL^37)]
[1]; incubation with DPP IV, 0 h
  % Intact peptide remaining after time (hours): 100%
[1]; incubation with DPP IV, 24 h
  % Intact peptide remaining after time (hours): remained completely intact

## YAPGTFISDYSIAMDKIHQQDFVNWLLAQKGKKNDWKHNITQ [(Pro^3)GIP]
Normal mice; 9 days after cessation of treatment
  glucose tolerance in normal mice after cessation: reversed 9 days after cessation of treatment
Normal mice; daily treatment for 11 days
  glucose tolerance in normal mice: marked deterioration of glucose tolerance

From patent US7875587B2, “Peptide analogues of GIP for treatment of diabetes, insulin resistance and obesity” (UUTECH Limited, priority 2004, dated 2011)
